Several values for one entry are separate records, joined by “and”; a condition that tells them apart may be missing. Equal entries are not always repeated. Entries after “also recorded” stand apart in the source; their conditions may differ.
Legend:
FIH [1] = target: T1, FIH (Homo sapiens, UniProt Q9NWT6); assay: SPE-MS FIH inhibition assay; format: biochemical; conditions: for IC50 / FIH IC50, independent replicate: source data of Table 3, single independent replicates; for IC50: read-out: FIH IC50, independent replicate; for IC50 FIH: 5.0 μM HIF-1α788-822, 10 μM 2OG, mean of two runs; on IC50 FIH: 0.15 µM FIH
Procedure: FIH inhibition assays were performed as described, using cosubstrate/cofactor stock solutions (L-ascorbic acid, LAA: 50 mM in MQ-grade water; 2-oxoglutarate, 2OG: 10 mM in MQ-grade water; ammonium iron(II) sulfate hexahydrate, FAS, (NH4)2Fe(SO4)2·6H2O: 400 mM in 20 mM HCl diluted to 1 mM in MQ-grade water), which were freshly prepared from commercially-sourced solids (Sigma Aldrich).
Dimethyl sulfoxide (DMSO) solutions of the 2OG derivatives were dry dispensed across 384-well polypropylene assay plates (Greiner) in an approximately threefold and 11-point dilution series (100 μM top concentration; the final DMSO assay concentration was kept constant at 0.5%v/v) using an ECHO 550 acoustic dispenser (Labcyte). […] Each reaction was performed in technical duplicates in adjacent wells of the assay plates; additionally, assays were performed in two independent duplicates on different days using different inhibitor solutions.
The Enzyme Mixture (25 μL/well), containing 0.3 μM His6-FIH in buffer (50 mM Tris, 50 mM NaCl, pH 7.5), was dispensed across the inhibitor-containing 384-well assay plates with a multidrop dispenser (ThermoFischer Scientific) at 20 °C under an ambient atmosphere. The plates were subsequently centrifuged (1000 rpm, 15 s) and incubated for 15 min at 20 °C. The Substrate Mixture (25 μL/well), containing 10.0 μM HIF-1α788–822[37] substrate, 200 μM LAA, 20.0 μM 2OG, and 20.0 μM FAS in buffer (50 mM Tris, 50 mM NaCl, pH 7.5), was added using the multidrop dispenser. The plates were centrifuged (1000 rpm, 15 s) and after incubating for 15 min, the enzyme reaction was stopped by the addition of 10%v/v aqueous formic acid (5 μL/well). The plates were then centrifuged (1000 rpm, 30 s) and analyzed by MS.
(§1) MS-analyses were performed using a RapidFire RF 365 high-throughput sampling robot (Agilent) attached to an iFunnel Agilent 6550 accurate-mass quadrupole time-of-flight mass spectrometer operated in the positive ionization mode. Assay samples were aspirated under vacuum for 0.6 s and loaded onto a C4 SPE cartridge. After loading, the C4 SPE cartridge was washed with 0.1%v/v aqueous formic acid to remove non-volatile buffer salts (5.5 s, 1.5 mL/min). […] The mass spectrometer was operated using the MassHunter Workstation B.08.00 software (Agilent), the mass spectrometer parameters were: capillary voltage (4000 V), nozzle voltage (1000 V), fragmentor voltage (365 V), gas temperature (280 °C), gas flow (13 L/min), sheath gas temperature (350 °C), sheath gas flow (12 L/min). The m/z + 2 (for CA1–20) or +3 (for HIF-1α788–822) charge states of the peptide (substrate) and the hydroxylated peptide (product) were used to extract ion chromatogram data, peak areas were integrated using RapidFire Integrator 4.3.0 (Agilent). Data were exported into Microsoft Excel and used to calculate the % conversion of the hydroxylation reaction using the equation: % conversion = 100 × (integral product peptide)/(integral substrate peptide+integral product peptide). […] Z′-factors were calculated according to the cited literature using Microsoft Excel (Supplementary Fig. 26)[83].
SPE-MS FIH inhibition assays were performed as described in the Methods section.
Tris, 50 mM NaCl, pH 7.5, 20 °C). […]

FIH [2] = target: T1, FIH; assay: SPE-MS FIH turnover (cosubstrate) assay in the absence of 2OG; format: biochemical; conditions: 330 μM 2OG or 2OG derivative, no 2OG, t = 15 min
Procedure: The ability of 35 synthetic C3/C4-substituted 2OG derivatives, which were prepared via a reported procedure (Supplementary Fig. 1 and Supplementary Methods)[21], to sustain catalysis by purified recombinant FIH in the absence of 2OG was examined using an assay directly monitoring substrate depletion and product formation (i.e., a +16 Da mass shift) by solid-phase extraction (SPE) coupled to mass spectrometry (SPE-MS)[44],[45]. […] (i.e. CA1–20)[47], were used as FIH substrates to test for potential substrate-dependent differences in terms of cosubstrate analog selectivity.
as §1, with “Assay” for “MS-analyses were performed using a RapidFire RF 365 high-throughput sampling robot (Agilent) attached to an iFunnel Agilent 6550 accurate-mass quadrupole time-of-flight mass spectrometer operated in the positive ionization mode. Assay”, “The m/z + 2 (for CA1–20) or +3 (for HIF-1α788–822) charge states of the peptide (substrate) and the hydroxylated peptide (product) were used to extract ion chromatogram data, peak areas were integrated using RapidFire Integrator 4.3.0 (Agilent).” left out

AspH [3] = target: T2, AspH (Homo sapiens, UniProt Q12797); design: method as in PMID 34163896; conditions: hFX-CP101–119 substrate, 330 μM 2OG or 2OG derivative, t = 15 min; cited from earlier work
T2 construct: the tetratricopeptide repeat domain (His6-AspH315-758), was produced and purified as previously reported; made in house
T2 sequence (Q12797 315-758): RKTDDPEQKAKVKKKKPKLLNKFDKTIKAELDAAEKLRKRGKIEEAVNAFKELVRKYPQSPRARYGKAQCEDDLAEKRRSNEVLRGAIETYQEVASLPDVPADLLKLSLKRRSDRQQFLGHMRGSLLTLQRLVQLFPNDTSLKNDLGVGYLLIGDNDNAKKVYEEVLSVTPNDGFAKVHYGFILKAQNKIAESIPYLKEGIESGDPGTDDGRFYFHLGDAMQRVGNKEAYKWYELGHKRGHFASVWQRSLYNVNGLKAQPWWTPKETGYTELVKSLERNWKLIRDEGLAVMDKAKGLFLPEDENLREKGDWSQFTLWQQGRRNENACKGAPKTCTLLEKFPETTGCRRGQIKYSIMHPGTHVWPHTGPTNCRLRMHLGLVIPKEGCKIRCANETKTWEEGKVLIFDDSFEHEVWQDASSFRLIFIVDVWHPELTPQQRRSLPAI

AspH [4] = target: T2, AspH; conditions: 0.05 μM AspH, 1.0 μM hFX-CP101-119, 3.0 μM 2OG, ref 21 (supplementary ref 1); cited from earlier work
AspH [5] = target: T2, AspH; assay: Competition assay in a single reaction vessel, AspH-catalyzed hydroxylation (SPE-MS); format: biochemical
Procedure: (§2) Mean of three independent runs (n = 3; mean ± SD). […] Cosubstrates: a 20 μM 2OG; b 20 μM 2OG; c 20 μM 1; d 20 μM 12; e 20 μM 12 and 100 μM 2OG; f 100 μM 14. Source data are provided as a Source Data file.
(§3) Mean of three independent runs (n = 3; mean ± SD). […] Source data are provided as a Source Data file.
(§4) Peptide turnover was monitored by SPE-MS using the same instrument configuration (with the exception that the peptides were eluted from the SPE cartridge with 0.1%v/v aqueous formic acid in 80/20 v/v acetonitrile/water) as described above.
(§5) FIH and AspH-catalyzed peptide hydroxylations were analyzed simultaneously using SPE-MS as described in the
(§6) Methods section; competition experiments were performed in the same reaction vessel using equimolar 2OG
(§7) oxygenase and substrate concentrations. […]
(§8) Source data are provided as a Source Data file.
(§9) FIH and AspH-catalyzed peptide hydroxylations were analyzed simultaneously using SPE-
(§10) MS as described in the Methods section; competition experiments were performed in the same reaction vessel
(§11) using equimolar 2OG oxygenase and substrate concentrations. […]
(§12) 2OG, 100 μM 14. Source data are provided as a Source Data file.

FIH [6] = target: T1, FIH; assay: Competition assay in a single reaction vessel, FIH-catalyzed hydroxylation (SPE-MS); format: biochemical
Procedure: as §2, §3, §4, §5, §6, §7, §8, §9, §10, §11, §12

[7] = Fig 4d, 0.5 mM 13 and 0.5 mM 2OG, after 4 min

T1 sequence (Q9NWT6 whole entry): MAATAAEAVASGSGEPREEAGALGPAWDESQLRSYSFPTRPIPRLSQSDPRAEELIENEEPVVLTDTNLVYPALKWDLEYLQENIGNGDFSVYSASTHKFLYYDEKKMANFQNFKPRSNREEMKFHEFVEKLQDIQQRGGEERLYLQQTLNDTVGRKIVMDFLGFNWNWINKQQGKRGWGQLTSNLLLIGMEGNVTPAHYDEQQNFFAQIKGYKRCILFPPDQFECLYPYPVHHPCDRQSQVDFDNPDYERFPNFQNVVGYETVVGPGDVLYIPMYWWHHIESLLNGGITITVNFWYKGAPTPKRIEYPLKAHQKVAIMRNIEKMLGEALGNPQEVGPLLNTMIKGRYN

| Structure (SMILES) | IC50 (FIH [1]) | FIH activity, %-substrate conversion (FIH [2]; CA1–20 substrate) | FIH activity, %-substrate conversion (FIH [2]; HIF-1α788–822 substrate) | AspH activity, %-substrate conversion (AspH [3]) | IC50 (AspH [4]) | AspH-catalyzed substrate hydroxylation (AspH [5]; Fig 4f, fourfold excess of 13 over 0.5 mM 2OG, after 4 min) | AspH conversion (AspH [5]; [7]) | FIH IC50, independent replicate (FIH [1]) | effect on FIH activity (FIH [6]; Fig 4, 13 from 0 to 2.0 mM, 0.5 mM 2OG) | FIH conversion (FIH [6]; [7]) | selectivity of AspH over FIH inhibition as judged by IC50-values (FIH [1]) | IC50 FIH (FIH [1]) | IC50 AspH (AspH [4]) | AspH conversion (AspH [5]; Supplementary Fig 8b, 100 μM 28, 0 μM 2OG, after 35 min) | FIH cosubstrate activity (FIH [6]; Supplementary Fig 8b, 100 μM 28, 0 μM 2OG) |
| --- | --- | --- | --- | --- | --- | --- | --- | --- | --- | --- | --- | --- | --- | --- | --- |
| CCCC(CC(=O)O)C(=O)C(=O)O (stereo not shown) [compound 3, 3-propyl-2OG] | 2640 nM and 2680 nM | ~10% | < 1% | <1% | ~5700 nM | – | – | – | – | – | – | – | – | – | – |
| CC1(C)c2ccccc2-c2ccc(CC(CC(=O)O)C(=O)C(=O)O)cc21 (stereo not shown) [compound 11, 3-((9,9-dimethyl-9H-fluoren-2-yl)methyl)-2OG] | 1830 nM and 1860 nM | ^c<1% ^d<1% | ^c<1% ^d<1% | <1% | 4300 nM | – | – | – | – | – | – | – | – | – | – |
| CC(C)(CC(=O)C(=O)O)C(=O)O [compound 13, 4,4-dimethyl-2OG] | – | ~10% | < 1% | <1% | ~300 nM | < 20% | ~ 60% | not inhibiting | no effect on FIH activity | ~ 80% | – | – | – | – | – |
| CC(C)CC(CC(=O)C(=O)O)C(=O)O (stereo not shown) [compound 16, 4-isobutyl-2OG] | – | ~3% | < 1% | <1% | ~500 nM | – | – | – | – | – | ~ 70 fold | – | – | – | – |
| O=C(O)C(=O)C12CCC(C(=O)O)(CC1)CC2 [compound 25] | – | ^c<1% ^d<1% | ^c<1% ^d<1% | ~8% | – | – | – | – | – | – | – | inactive | inactive | – | – |
| O=C(O)C(=O)c1ccccc1C(=O)O [compound 26] | – | ^c<1% ^d<1% | ^c<1% ^d<1% | <1% | – | – | – | – | – | – | – | inactive | inactive | – | – |
| O=C(O)C(=O)c1cccc(C(=O)O)c1 [compound 27] | – | ^c<1% ^d<1% | ^c<1% ^d<1% | <1% | – | – | – | – | – | – | – | inactive | inactive | – | – |
| O=C(O)C(=O)c1ccc(C(=O)O)cc1 [compound 28, 4-Carboxyphenylglyoxylic acid] | – | ~10% | < 1% | ~80% | – | – | – | not inhibiting | – | – | – | – | inactive; also recorded: neither inhibits AspH nor FIH catalysis | ~ 40% | no cosubstrate activity |
| O=C(O)C(=O)c1ccc(C(=O)O)cc1F [compound 29] | – | ^c<1% ^d<1% | ^c<1% ^d<1% | ~45% | – | – | – | – | – | – | – | inactive | inactive | – | – |
| O=C(O)C(=O)c1ccc(C(=O)O)c(F)c1 [compound 30] | – | ^c<1% ^d<1% | ^c<1% ^d<1% | ~8% | – | – | – | – | – | – | – | inactive | inactive | – | – |
| O=C(O)C(=O)c1ccc(C(=O)O)cc1Br [compound 31] | – | ^c<1% ^d<1% | ^c<1% ^d<1% | ~20% | – | – | – | – | – | – | – | inactive | inactive | – | – |
| O=C(O)C(=O)c1ccc(C(=O)O)c(Br)c1 [compound 32] | – | ^c<1% ^d<1% | ^c<1% ^d<1% | ~8% | – | – | – | – | – | – | – | inactive | inactive | – | – |
| Cc1cc(C(=O)O)ccc1C(=O)C(=O)O [compound 33] | – | ^c<1% ^d<1% | ^c<1% ^d<1% | ~5% | – | – | – | – | – | – | – | inactive | inactive | – | – |
| O=C(O)C(=O)c1cscc1C(=O)O [compound 34] | – | ^c<1% ^d<1% | ^c<1% ^d<1% | <1% | – | – | – | – | – | – | – | inactive | inactive | – | – |
